Assay results published in patent US20110098257A1, “DERIVATIVES OF 4- OR 5-AMINOSALICYLIC ACID” (ANTIBE THERAPEUTICS INC., priority 2005, published 2011).
Structures can show the parent of a compound that is named as a salt.

Legend:
[1] = test system: visceral pain in response to colorectal distension; experiment: Rat model of visceral pain perception (colorectal distension, AWR score); assay type: in vivo, Rats (male, Wistar); conditions: for pain perception: equimolar doses: mesalamine 50, Compound XXXV 130, ADT-OH 80, Compound XXVII 100, 4-HTB 50 mg/kg; for pain perception / pain perception score: vs vehicle-treated group; for pain perception score after glibenclamide pretreatment / pain perception score: 0.8 mL colorectal distention, 100 mg/kg, FIG. 17; for pain perception score after glibenclamide pretreatment: glibenclamide 10 mg/kg i.p. 30 min before
Protocol: A rat model of visceral pain perception, a pre-clinical model of irritable bowel syndrome, was used in the following example. Rats (male, Wistar, 200-250 g, obtained from Charles River, Monza, Italy), were housed in plastic cages and maintained under controlled conditions with 12-hours light/dark cycle with lights on at 7.00 AM. Tap water and standard laboratory chow were freely available. Before experiments, rats were individually trained by spending 2-3 hours per day in a plexiglass cage for 2-3 days. It allowed them to adjust to a movement-restriction environment. Food was withheld for 12 hours before colorectal distension (CRD) recording were performed. Experiments were performed in awake rats and were conducted in a blind manner in that the observer was not aware of the identity of drug administered to each animal.
In the testing day, rats were sedated with ether inhalation and a 2 cm long latex balloon was inserted intrarectally 2 cm from the anal verge and fixed at the base of the tail. The balloon was connected via a double-barreled cannula to a pressure transducer to continuously monitoring the rectal pressure by a computer (PowerLab PC, A.D. Instruments, Milford, Mass., USA) and to a syringe for inflation/deflation of the balloon. The rats were then housed in a small cage (20×8×8 cm) on an elevated Plexiglas™ platform and allowed to wake up and adapt for 1 hour. After recovery from sedation, animals underwent the CRD procedure and behavioral responses were tested. The night before the experiments, the balloons were inflated and left overnight so the latex stretched and the balloons became compliant.
CRD of 20 seconds, performed every 5 minutes, was applied in increment of 0.4 ml starting from 0.4 ml up to 1.6 ml water. To achieve an accurate measurement of the colonic parameters and perception, the distensions were repeated twice for each intensity and data for each animal were averaged for analysis. Each animal underwent a double set of CRD. Twenty minutes after the first sequence of CRD (0.4 mL-1.6 ml water), drugs were administered intraperitoneally (i.p.) and a second set of CRD was performed. Behavioral responses during the first and the second set of CRD were assessed and compared.
Behavioral response to CRD was assessed by measuring the abdominal withdrawal reflex (AWR) using a semiquantitative score (1).
The effects of mesalamine and Compound XXXV on colonic compliance and sensitivity were determined using a total of 8 fasting rats. To investigate whether the administration of mesalamine and Compound XXXV could revert pain induced by CRD, after the first sequence of CRD, […], after which a second set of CRD was repeated.
To determine the effect of mesalamine or Compound XXXV on colonic smooth muscle, the compliance of the colo-rectum during CRD was obtained from intracolo-rectal volume and pressure and expressed as mL/mmHg.
All data are presented as the mean±SEM, with sample sizes of 4 rats/group; statistical comparison of paired data was performed by the Wilcoxon signed rank test. An associated probability (p value) of less that 5% was considered significant.
A rat model of visceral pain perception as described above was used to compare pain perception scores for both Compound XXXV and Compound XXVII with or without glibenclamide, an inhibitor of ATP-sensitive K^+ (KATP) channels.

[2] = test system: leukocyte adherence in mesenteric post-capillary venules; experiment: Leukocyte adherence to the vascular endothelium in vivo (intravital microscopy, aspirin-induced); design: species or system Rats
Protocol: Leukocyte adherence was studied using intravital microscopy, as described in detail previously (Wallace et al., (1993) Am. J. Physiol. 265: 993-998, incorporated hereto by reference). Rats were anesthetized with pentobarbital sodium (60 mg/kg i.p.) and cautery incisions were made along the abdominal region. A tracheotomy was performed to facilitate breathing. The rats were placed in a supine position, and a segment of the mesentery was exteriorized through the abdominal incision. The mesentery was carefully placed over an optically clear viewing pedestal that allowed for trans-illumination of a 2-cm^2 segment of tissue. All exposed tissue was covered with saline-soaked gauze to minimize dehydration. The temperature of the pedestal was kept at 37° C. and the mesentery was superfused with warmed bicarbonate-buffered saline (pH 7.4). An intravital microscope (Nikon L25/0.35) and a ×10 eyepiece were used to observe the mesenteric microcirculation. Post-capillary venules with diameters ranging from 20 to 40 μm were selected for the study. A video camera mounted on the microscope (Panasonic™ digital 5000) projected the image onto a monitor, and the images were recorded for playback analysis using a videocassette recorder. Images of the mesenteric microcirculation were recorded 5 minutes prior to aspirin administration (baseline), at the time of aspirin administration (time 0-5) and every 15 minutes for 60 minutes. Leukocyte adherence was blindly quantified from videotaped images of the vessels made over 5-min periods as the number of leukocytes that remained stationary along the vessel wall for 30 s or more (expressed per 100 μm venule length). Groups of rats (at least 5 in each) were pretreated with Compound XXXV (130 mg/kg), Compound XXVII (100 mg/kg), mesalamine (50 mg/kg), or vehicle 60 min prior to aspirin (or vehicle) administration. These drugs were given intragastrically. In some experiments, rats were treated with glibenclamide (10 mg/kg i.p.) or vehicle 30 min prior to administration of these compounds.

[3] = test system: PE (1 μM) precontracted rings of thoracic aorta; experiment: Vasorelaxant effect on PE precontracted thoracic aorta rings; design: species or system CD-1 mice; conditions: cumulative concentration-response 10 nM-3 mM, endothelium present, vs vehicle; FIG. 22
Protocol: CD-1 mice were sacrificed and thoracic aorta was rapidly dissected and cleaned from fat and connective tissue. […] Changes in isometric tension were recorded with PowerLab™ data acquisition system (Ugo Basile, Italy). […] Rings were initially stretched until a resting tension of 1.5 g was reached and allowed to equilibrate for at least 40 minutes during which tension was adjusted, when necessary, to 1.5 g and bathing solution was periodically changed.
Vehicle represents buffer but no compound. Curves to tested compounds were constructed in presence of endothelium.
Data obtained are shown in FIG. 22 and are expressed as mean±SEM. The level of statistical significance was determined by 2-way analysis of variance (ANOVA) followed by Bonferroni's test for multiple comparison, using the GraphPad™ software.

[4] = test system: mice having TNBS-induced colitis; experiment: TNBS-induced colitis in mice (disease activity score, colonic MPO activity); assay type: in vivo, Balb/c mice
Protocol: A standard experimental animal model of colitis induced by intracolonic administration of 2,4,6-trinitrobenzene sulfonic acid (TNBS) to mice is used in the following example. A detailed description of this model has been published (Santucci et al. (2003) Gastroenterology 124:1381-94) and is incorporated herein by reference. Briefly, 6-8 week old Balb/c mice were given TNBS intracolonically at a dose of 1.5 mg in 0.1 mL of 30% ethanol. The mice were randomized to the various treatment groups (n=6 per group). Beginning one hour later and continuing every 12 h for 5 days, the mice were treated orally with vehicle (1% carboxymethylcellulose (CMC)), 5-ASA (mesalamine) (25, 50 or 75 mg/kg) or with equimolar doses of 2-hydroxy-5-amino-benzoic acid 4-(thioxo-5H-[1,2]dithiol-3-yl)-phenyl ester hydrochloride (Compound XXXV) (130 mg/kg), or with […] (100 mg/kg), 50% (66 mg/kg) and 25% (33 mg/kg) of that dose. The mice were evaluated (blindly) on the final day of the study for the presence of diarrhea and fecal occult blood, and their body weights were measured. […] After sacrifice, a sample of the colon was excised for measurement of myeloperoxidase (MPO) activity, as a marker of granulocyte infiltration. All results were compared to those obtained with healthy mice as well.
FIGS. 3 and 4 show the Disease Activity Index and MPO activity, respectively, using the same experimental animal model of colitis as described above, in which Compound XXXV (130 mg/kg) was compared to equimolar doses of its two constituents, mesalamine (50 mg/kg) and 5-p-hydroxyphenyl-[…] (ADT-OH) (80 mg/kg), and a mixture of mesalamine (50 mg/kg) and ADT-OH (80 mg/kg). *p<0.05 versus the vehicle-treated group. Each group consisted of at least 5 rats.
FIGS. 6 and 7 show the Disease Activity Index and MPO, respectively, using the same experimental animal model of colitis as described above, in which Compound XXVII (100 mg/kg) was compared to equimolar doses of its two constituents, mesalamine (50 mg/kg) and 4-hydroxythiobenzamide (4-HTB) (50 mg/kg), mesalamine alone (50 mg/kg) and 4-HTB alone (50 mg/kg). *p<0.05 versus the vehicle-treated group. Each group consisted of at least 5 rats.
The same model was used as described above. In this example, the effects of mesalamine (50 mg/kg) were compared to those of equimolar doses of Compound XXXV. In addition to measuring the severity of colitis by measuring disease activity score and MPO activity, tissues were processed for measurement of a number of genes for inflammatory cytokines and other mediators.

[5] = after patients have taken the usual doses; Dig. Dis. Sci. 1989; 34: 573-578; cited from earlier work

SMILES: Nc1ccc(O)c(C(=O)Oc2ccc(-c3cc(=S)ss3)cc2)c1 (as salt: hydrochloride) [Compound XXXV, 5-Amino-2-hydroxy-benzoic acid 4-(5-thioxo-5H-[1,2]dithiol-3-yl)-phenyl ester]
- melting point: 93 to 95 °C

SMILES: Oc1ccc(-c2cc(=S)ss2)cc1 [ADT-OH, 5-p-hydroxyphenyl-1,2-dithione-3-thione, reference compound]
- pain perception [1]: Only Compound XXXV and Compound XXVII significantly reduced pain perception

SMILES: CC(=O)Oc1ccccc1C(=O)O [Aspirin, aspirin, reference compound]
- leukocyte adherence after intragastric aspirin ([2]; vs baseline period / vehicle+vehicle group, FIG. 19): markedly increased leukocyte adherence

SMILES: NC(=S)c1ccc(O)cc1 [Compound 4-HTB, 4-hydroxythiobenzamide, reference compound]
- vasorelaxant effect (% relaxation) [3]: significant vasorelaxant effects, which were concentration dependent
- pain perception [1]: Only Compound XXXV and Compound XXVII significantly reduced pain perception

SMILES: NC(=S)c1ccc(OC(=O)c2cc(N)ccc2O)cc1 [Compound XXVII, 5-Amino-2-hydroxy-benzoic acid 4-thiocarbamoyl-phenyl ester]
- melting point: 193 to 195 °C
- Disease Activity Index ([4]; Compound XXVII 100 mg/kg vs mesalamine 50 mg/kg, 4-HTB 50 mg/kg and their mixture, FIG. 5): almost three times as effective as either mesalamine alone, 4-HTB alone or a mixture of mesalamine and 4-HTB
- MPO activity (granulocyte infiltration) ([4]; Compound XXVII 100 mg/kg, FIG. 6): significantly reduced inflammation
- pain perception score after glibenclamide pretreatment [1]: reversed by pretreatment with glibenclamide
- pain perception score [1]: significantly reduced the pain perception
- pain perception [1]: significantly reduced pain perception
- aspirin-induced leukocyte adherence, final time period ([2]; minutes 60-65, Compound XXXV 130 mg/kg, Compound XXVII 100 mg/kg, FIG. 20): suppress aspirin-induced leukocyte adherence
- aspirin-induced leukocyte adherence, final time period, with glibenclamide pretreatment ([2]; minutes 60-65, glibenclamide 10 mg/kg i.p., FIG. 20): glibenclamide pretreatment to reverse this inhibitor effect

SMILES: COc1ccc(Cl)cc1C(=O)NCCc1ccc(S(=O)(=O)NC(=O)NC2CCCCC2)cc1 [Glibenclamide, glibenclamide, reference compound]
- leukocyte adherence, glibenclamide alone ([2]; glibenclamide 10 mg/kg i.p., no aspirin, FIG. 19): did not affect leukocyte adherence
- aspirin-induced increase in leukocyte adherence ([2]; pretreatment: Compound XXXV 130 mg/kg or mesalamine 50 mg/kg intragastrically 60 min prior to aspirin, glibenclamide 10 mg/kg i.p., FIG. 19): did not affect the magnitude of aspirin-induced leukocyte adherence

SMILES: Nc1ccc(O)c(C(=O)O)c1 [mesalamine, 5-aminosalicylic acid]
- pain perception score after glibenclamide pretreatment [1]: did not affect the pain perception
- pain perception score [1]: had no significant effect
- pain perception [1]: Only Compound XXXV and Compound XXVII significantly reduced pain perception
- aspirin-induced leukocyte adherence with glibenclamide pretreatment ([2]; glibenclamide 10 mg/kg i.p. 30 min prior to the compound, compound plus aspirin, FIG. 19): no effect
- mesalamine concentration in the colonic lumen [5]: up to 5 mM

SMILES: CC(=N)S [thioacetamide]
- vasorelaxant effect (% relaxation) [3]: significant vasorelaxant effects, which were concentration dependent
